Source: paper PMC7005646, “Overcoming resistance to anabolic SARM therapy in experimental cancer cachexia with an HDAC inhibitor” (EMBO Molecular Medicine, 2020)

Columns and labels:
C‐26 tumor‐bearing mice [1] = experiment: Combined androgen and AR‐42 study (Study 4), C‐26 model; format: in vivo, mouse
Procedure: These studies were performed as previously described (Tseng et al, 2015a) with modifications. Tumors were established in the right flank of CD2F1 mice by subcutaneous injection of C‐26 cells (0.5 × 10^6 cells in 0.1 ml). […] TFM‐4AS‐1 (a potent experimental SARM), DHT, and vehicles were administered by subcutaneous injection.
Similar to Study 2, the tumor‐free control group was maintained at six animals, whereas 10 animals were included in each of the 6 tumor‐bearing groups. Six days after cell injection, animals with palpable tumors were treated once daily for 13 days with vehicles for AR‐42 and TFM‐4AS‐1/DHT (n = 9), AR‐42 (10 mg/kg; TFM‐4AS‐1/DHT vehicle; n = 10), TFM‐4AS‐1 (10 mg/kg; AR‐42 vehicle; n = 9), DHT (3 mg/kg; AR‐42 vehicle; n = 10), the combination of AR‐42 and TFM‐4AS‐1 (10 mg/kg each; n = 9), or the combination of AR‐42 (10 mg/kg) and DHT (3 mg/kg; n = 10). Grip strength was measured, and tissues were collected as in the previous studies.
Forelimb grip strength was measured using Bio‐GS3 Grip Strength Test Meter (Forceleader DBA Bioseb, Pinellas Park, FL). Each mouse was held by the base of its tail and lowered over the apparatus until its forepaws grasped the metal pull bar. […] The force applied to the bar at the moment of release was recorded as the peak force. […]

C‐26 cells = experiment: Cell viability assay (CCK‐8); format: cell-based, mouse; settings: up to 10 µM, 48 hours
Procedure: Cell viability assays were conducted using the CCK‐8 kit (Dojindo Molecular Technologies, Inc; Kumamoto, Japan). Briefly, 1,250 cells per well were plated on 96‐well plates and allowed to adhere overnight.

C‐26 tumor‐bearing mice [2] = experiment: Initial AR‐42/GTx‐024 combination study (Study 1), male C‐26 tumor‐bearing mice; format: in vivo, mouse
LLC tumor‐bearing mice = experiment: AR‐42/GTx‐024 combination study in the LLC cachexia model (Study 5); format: in vivo, mouse
Procedure: This study was performed as previously described (Tseng et al, 2015a) with modifications. Tumors were established in the right hindlimb of male C57BL/6NHsd mice by intramuscular injection of LLC cells (0.5 × 10^6 cells in 0.05 ml). Similar to Study 3, the tumor‐free control group was maintained at six animals, whereas 12 animals were included in each of the tumor‐bearing groups. […] Grip strength, body weight, and food consumption were measured, and tissues were collected as in the previous C‐26 studies.

[3] = GTx‐024 plasma pharmacokinetics, LLC tumor‐bearing C57BL/6NHsd mice; format: in vivo, mouse
Procedure: Blood was collected by cardiac puncture into heparinized tubes (BD Microtainer, Becton, Dickinson and Company, Franklin Lakes, NJ, USA) and immediately centrifuged at room temperature for 3 min at 4,200 RCF. Plasma was removed and placed on dry ice prior to storage at −80°C until analysis. Bioanalytical analyses were conducted as previously described (Cheng et al, 2016) by Charles River Laboratories, Inc. (Wilmington, MA, USA). Non‐compartmental analysis was performed using the PKNCA package in R version 3.6.0.

serum cytokines = experiment: Serum cytokine panel (multiplex), terminal samples from Study 2; format: in vivo, mouse; settings: GTx‐024 15 mg/kg, mean ± SD
Procedure: This confirmatory study was performed exactly as Study 1 with expanded animal numbers. Tumor‐free control groups were maintained at 6 animals each, whereas 10 animals were included in each of the tumor‐bearing groups. […] Grip strength was measured on study days 0 (baseline) and 16. Due to rapid model progression, this study was terminated on day 17 after only 12 days of treatment.
Serum cytokine panel analyses were performed by a commercial vendor (Eve Technologies, Calgary, Canada) as previously described (Tseng et al, 2015a). Serum interleukin‐6 (IL‐6) was measured using a commercial ELISA kit (R&D Systems, Minneapolis, MN, USA) according to the manufacturer's instructions.

pSTAT3 (Y705) = experiment: pSTAT3/tSTAT3 Western blot of gastrocnemius muscle; format: in vivo, mouse
Procedure: Western blots from all studies were performed on gastrocnemius muscle from representative animals lysed by Nonidet P‐40 isotonic lysis buffer [50 mM Tris–HCl, pH 7.5, 120 mM NaCl, 1% (v/v) Nonidet P‐40, 1 mM EDTA, 50 mM NaF, 40 mM glycerophosphate, and […] each of protease inhibitors (aprotinin, pepstatin, and leupeptin)]. Equivalent amounts of protein from each sample, as determined by the Bradford assay (Bio‐Rad), were resolved by SDS–PAGE and then transferred (semi‐dry) onto Immobilon nitrocellulose membranes (Millipore, Bellerica, MA). Membranes were washed twice with TBST [Tris‐buffered saline (TBS) containing 0.1% Tween‐20], blocked with 5% non‐fat milk in TBST for 1 h, and then washed an additional three times. Membranes were incubated with specific primary antibody in TBST (1:1,000) at 4°C overnight, washed three times (TBST), and then incubated with appropriate goat anti‐rabbit or anti‐mouse IgG–horseradish peroxidase‐conjugated secondary antibodies (1:5,000) at room temperature (1 h). Following additional washes (TBST), immunoblots were visualized as appropriate by ECL chemiluminescence (Amersham Biosciences, Little Chalfont, United Kingdom) or Duration HRP Chemiluminescence (Alkali Scientific, Florida, United States). Primary antibodies: phospho‐STAT3 (Tyr705) (D3A7) XP® rabbit mAb #9145, STAT3 (124H6) mouse mAb #9139 (Cell Signaling Technology, Danvers, MA); α‐tubulin (B‐7), sc‐5286 (Santa Cruz Biotechnologies, Santa Cruz, CA); androgen receptor (EP670Y), ab52615 (Abcam, Cambridge, MA) and GAPDH (6C5), sc‐32233 (Santa Cruz Biotechnologies, Santa Cruz, CA).

[4] = system: serum‐luteinizing hormone; experiment: Serum luteinizing hormone radioimmunoassay, Study 1; format: in vivo, mouse; settings: Study 1, day 18, 15 mg/kg, C‐26 tumor‐bearing mice
Procedure: Luteinizing hormone was measured in serum by a two‐site sandwich radioimmunoassay performed by the Ligand Assay and Analysis Core at the Center for Research in Reproduction, University of Virginia School of Medicine (Charlottesville, VA). Serum was isolated by centrifugation (2,000 g, 15 min) from whole blood samples collected from mice immediately post‐mortem, and then stored at −80°C until shipment on dry ice.

[5] = male rats, 0.5 mpk; ref Xenobiotica. 2013 Nov;43(11):993-1009; cited from earlier work
[6] = Study 1, male, day 18, GTx‐024 15 mg/kg, AR‐42 10 mg/kg, or both
[7] = male, C57BL/6NHsd, mouse, single 15 mg/kg oral dose, plasma
[8] = C‐26 Tumor‐bearing, AR‐42 10 mg/kg, or both

Compound: C[C@]12CCC(=O)C[C@@H]1CC[C@@H]1[C@@H]2CC[C@]2(C)[C@@H](O)CC[C@@H]12 [DHT, dihydrotestosterone]
- C‐26 tumor growth (C‐26 tumor‐bearing mice [1]; Study 4, DHT alone 3 mg/kg, after 8 days of administration): tumor growth was significantly suppressed
- direct effects on C‐26 cell viability (C‐26 cells): did not detect direct effects

Compound: CN1C(=O)C=C[C@]2(C)[C@H]3CC[C@]4(C)[C@@H](C(=O)Nc5ccccc5C(F)(F)F)CC[C@H]4[C@@H]3CC[C@@H]12 [TFM‐4AS‐1]
- sparing of body weight or mass of gastrocnemius or quadriceps (C‐26 tumor‐bearing mice [1]; Study 4, monotherapy 10 mg/kg subcutaneous): did not spare body weight

Compound: C[C@](O)(COc1ccc(C#N)cc1)C(=O)Nc1ccc(C#N)c(C(F)(F)F)c1 [GTx‐024, (S)‐N‐(4‐cyano‐3‐(trifluoromethyl)phenyl)‐3‐(4‐cyanophenoxy)‐2‐hydroxy‐2‐methylpropanamide]
- body weight in tumor‐free controls (C‐26 tumor‐bearing mice [2]; Study 1, 15 mg/kg daily oral): did not cause body weight loss
- terminal body weight corrected for tumor mass (C‐26 tumor‐bearing mice [2]; Study 1, male, day 18, 13 days daily oral, GTx‐024 15 mg/kg, AR‐42 10 mg/kg, or both): 79.0 ± 11.2 % of tumor‐free controls
- terminal gastrocnemius mass (C‐26 tumor‐bearing mice [2]; [6]): 84 ± 11.3 % of tumor‐free controls
- terminal quadriceps mass (C‐26 tumor‐bearing mice [2]; [6]): 80.0 ± 9.1 % of tumor‐free controls
- LLC tumor growth (LLC tumor‐bearing mice; Study 5, 15 mg/kg daily oral): stimulated LLC tumor growth
- LLC tumor growth (LLC tumor‐bearing mice; repeat of Study 5, 0.5 mg/kg daily oral): did not promote LLC tumor growth
- response of body weight and skeletal muscle mass loss (LLC tumor‐bearing mice; repeat of Study 5, 10 mg/kg AR‐42, 0.5 mg/kg GTx‐024, or both): did not respond
- projected mouse exposure at 0.5 mpk over rat exposure at 0.5 mpk ([3]; 28.8 vs 4.3 ug*hr/mL): 6.7 fold
- exposure projected for 0.5 mg/kg ([3]; 30‐fold dose reduction from 15 mg/kg, mouse): ~ 28.8 μg*h/ml
- AUC(0-inf) [3, 7]: 863 µg·h/mL
- AUC(0-t) [3, 7]: 721 µg·h/mL
- Cmax [3, 7]: 25800 ng/mL
- half-life [3, 7]: 18.1 h
- GM‐CSF, serum (serum cytokines; [8]): 17.35 ± 4.33 pg/mL
- G‐CSF, serum (serum cytokines; [8]): 2446.63 ± 1625.70 pg/mL
- IL‐6, serum (serum cytokines; [8]): 397.54 ± 341.43 pg/mL
- IL‐17, serum (serum cytokines; [8]): 1.75 ± 1.28 pg/mL
- IP‐10, serum (serum cytokines; [8]): 154.76 ± 17.98 pg/mL
- KC, serum (serum cytokines; [8]): 288.89 ± 154.46 pg/mL
- LIF, serum (serum cytokines; [8]): 45.26 ± 21.57 pg/mL
- LIX, serum (serum cytokines; [8]): 5234.39 ± 4771.34 pg/mL
- M‐CSF, serum (serum cytokines; [8]): 22.23 ± 9.45 pg/mL
- GM‐CSF, serum (serum cytokines; Tumor‐free): 13.27 ± 4.62 pg/mL
- G‐CSF, serum (serum cytokines; Tumor‐free): 338.39 ± 71.70 pg/mL
- IL‐6, serum (serum cytokines; Tumor‐free): 2.45 ± 1.31 pg/mL
- IL‐17, serum (serum cytokines; Tumor‐free): 5.01 ± 1.18 pg/mL
- IP‐10, serum (serum cytokines; Tumor‐free): 145.68 ± 48.83 pg/mL
- KC, serum (serum cytokines; Tumor‐free): 90.02 ± 17.69 pg/mL
- LIF, serum (serum cytokines; Tumor‐free): 2.50 ± 2.34 pg/mL
- LIX, serum (serum cytokines; Tumor‐free): 1316.67 ± 1662.66 pg/mL
- M‐CSF, serum (serum cytokines; Tumor‐free): 27.23 ± 10.09 pg/mL
- direct effects on C‐26 cell viability (C‐26 cells): did not detect differences in the direct effects
- pSTAT3 in gastrocnemius (pSTAT3 (Y705); female C‐26 tumor‐bearing mice, Study 3): reduced levels of pSTAT3 activation
- pSTAT3 in gastrocnemius (pSTAT3 (Y705); male C‐26 tumor‐bearing mice, Study 1): no apparent effect
- serum‐luteinizing hormone [4]: suppressed serum‐luteinizing hormone
- AUCinf [5]: approximately 4.3 ug*hr/mL
